Where two headings read alike, the source gives them in different places.
How the values were obtained:
Assay type in all cases: biochemical
procaspase-6 = target: T1, procaspase-6 (Homo sapiens, UniProt P55212); experiment: Executioner procaspase-6 activation assay (Ac-VEID-AFC fluorogenic substrate); conditions: incubation with compound for 5 h at 37° C.; 100 nM procaspase
T1 sequence (P55212 1-293): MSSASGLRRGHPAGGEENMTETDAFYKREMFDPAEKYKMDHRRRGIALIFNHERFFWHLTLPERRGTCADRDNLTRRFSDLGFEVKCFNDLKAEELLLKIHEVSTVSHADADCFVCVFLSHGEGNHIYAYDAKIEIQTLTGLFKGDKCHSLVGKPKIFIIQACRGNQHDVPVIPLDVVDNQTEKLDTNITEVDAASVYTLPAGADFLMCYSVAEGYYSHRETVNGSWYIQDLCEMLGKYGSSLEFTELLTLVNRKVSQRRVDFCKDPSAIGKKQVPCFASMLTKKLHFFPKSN
Procedure, shortened: (§1)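 Procaspase at 100 nM incubated with compound (100 nM–100 μM) in 50 mM HEPES pH 7.4, KCl, DTT, 0.01% Triton X-100, 3% DMSO, 37 °C for 5 h; then 25 μM Ac-DEVD-AFC (procaspase-7) or Ac-VEID-AFC (procaspase-6), kinetic fluorescence 30 min (ex 365/em 495); EC50 reported.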

procaspase-7 = target: T2, procaspase-7 (Homo sapiens, UniProt P55210); experiment: Executioner procaspase-7 activation assay (Ac-DEVD-AFC fluorogenic substrate); conditions: incubation with compound for 5 h at 37° C.; 100 nM procaspase
T2 construct: His6 (C); made in house; host or cells: E. coli BL21(DE3)RP, pET-21b
T2 sequence (P55210 1-303): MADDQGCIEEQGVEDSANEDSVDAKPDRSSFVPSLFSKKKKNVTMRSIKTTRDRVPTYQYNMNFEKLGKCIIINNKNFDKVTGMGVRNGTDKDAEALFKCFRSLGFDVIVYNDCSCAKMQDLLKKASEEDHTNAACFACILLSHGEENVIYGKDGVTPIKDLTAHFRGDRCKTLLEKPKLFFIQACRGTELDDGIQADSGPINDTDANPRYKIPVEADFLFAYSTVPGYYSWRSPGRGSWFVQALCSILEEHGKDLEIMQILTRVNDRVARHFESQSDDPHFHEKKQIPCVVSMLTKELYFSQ
Procedure, shortened: as §1

procaspase-3 = target: T3, procaspase-3 (Homo sapiens, UniProt P42574); experiment: Executioner procaspase-3 activation assay (Ac-DEVD-AFC fluorogenic substrate)
T3 construct: His6 (C); made in house; host or cells: E. coli BL21(DE3)RP, pET-23b
T3 sequence (P42574 1-277): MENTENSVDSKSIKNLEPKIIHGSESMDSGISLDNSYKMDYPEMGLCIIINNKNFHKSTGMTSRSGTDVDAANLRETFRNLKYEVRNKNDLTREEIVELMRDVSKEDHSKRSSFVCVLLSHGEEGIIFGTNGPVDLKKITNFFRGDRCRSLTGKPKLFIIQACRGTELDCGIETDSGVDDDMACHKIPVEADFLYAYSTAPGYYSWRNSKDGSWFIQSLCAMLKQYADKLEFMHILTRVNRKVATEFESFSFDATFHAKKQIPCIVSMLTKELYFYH
Procedure, shortened: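 Procaspase-3 at 100 nM was incubated with activating compounds (100 nM to 100 uM) in 50 mM HEPES pH 7.4, 50 mM KCl, 1 mM DTT and 0.01% Triton-X100, the detergent limiting aggregation artefacts. Protein, substrate and inhibitor were kept as frozen aliquots and thawed just before use.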

[1] = incubation with compound for 5 h at 37° C., 100 nM procaspase, read-out: Procaspase Activation 3

SMILES | EC50 (procaspase-6) | EC50 (procaspase-7) | EC50 (procaspase-3; [1]) | EC50 (procaspase-3)
Cc1noc(C)c1-c1cccc(NC(=O)c2cc3cccc(O)c3oc2=O)c1 [compound 153, 8-Hydroxy-2-oxo-2H-chromene-3-carboxylic acid [3-(3,5-dimethyl-isoxazol-4-yl)-phenyl]-amide] | > 100 µM | 10 to 50 µM | 10 to 50 µM | 
COc1cccc2cc(C(=O)Nc3cccc(-c4cccc5[nH]ccc45)c3)c(=O)oc12 [compound 168, 8-Methoxy-2-oxo-2H-chromene-3-carboxylic acid [3-(1H-indol-4-yl)-phenyl]-amide] | > 100 µM | > 100 µM |  | > 100 µM
COc1cccc2cc(C(=O)Nc3cccc(-c4cnn(C)c4)c3)c(=O)oc12 [compound 172, 8-Methoxy-2-oxo-2H-chromene-3-carboxylic acid [3-(1-methyl-1H-pyrazol-4-yl)-phenyl]-amide] | > 100 µM | > 100 µM | > 100 µM | 
O=C(Nc1cccc(-c2cnc3ccccc3c2)c1)c1cc2cccc(O)c2oc1=O [compound 83, 8-Hydroxy-2-oxo-2H-chromene-3-carboxylic acid [3-Quinolin-3-yl-phenyl]-amide] | > 100 µM | > 100 µM | > 100 µM | 
COc1ccc(-c2cccc(NC(=O)c3cc4cccc(OC)c4oc3=O)c2)cc1OC [compound 54, 8-Methoxy-2-oxo-2H-chromene-3-carboxylic acid (3′,4′-Dimethoxy-biphenyl-3-yl)-amide] | > 100 µM | > 100 µM | > 100 µM | 
COc1cccc2cc(C(=O)Nc3cccc(-c4cncnc4)c3)c(=O)oc12 [compound 136, 8-Methoxy-2-oxo-2H-chromene-3-carboxylic acid (3-pyrimidin-5-yl-phenyl)-amide] | 50 to 200 µM | > 100 µM | 50 to 200 µM | 
O=C(Nc1cccc(-c2ccccc2S(=O)(=O)N2CCOCC2)c1)c1cc2cccc(O)c2oc1=O [compound 98, 8-Hydroxy-2-oxo-2H-chromene-3-carboxylic acid (2′-(Morpholine-4-sulfonyl)-biphenyl-3-yl)-amide] | > 100 µM | 10 to 50 µM | 10 to 50 µM | 
CCOc1ncccc1-c1cccc(NC(=O)c2cc3cccc(OC(F)(F)F)c3oc2=O)c1 [compound 43, 8-Trifluoromethoxy-2-oxo-2H-chromene-3-carboxylic acid [3-(2-ethoxy-pyridin-3-yl)-phenyl]-amide] | > 100 µM | > 100 µM | > 100 µM | 
COc1cccc2cc(C(=O)Nc3cccc(-c4ccc(N(C)C)nc4)c3)c(=O)oc12 [compound 138, 8-Methoxy-2-oxo-2H-chromene-3-carboxylic acid [3-(6-dimethylamino-pyridin-3-yl)-phenyl]-amide] | > 100 µM | > 100 µM | > 100 µM | 
COc1cccc2cc(C(=O)Nc3cccc(-c4ccccc4NC(C)=O)c3)c(=O)oc12 [compound 96, 8-Methoxy-2-oxo-2H-chromene-3-carboxylic acid (2′-acetylamino-biphenyl-3-yl)-amide] | > 100 µM | > 100 µM | > 100 µM | 
N#Cc1ccc(-c2cccc(NC(=O)c3cc4cccc(O)c4oc3=O)c2)cc1F [compound 143, 8-Hydroxy-2-oxo-2H-chromene-3-carboxylic acid (4′-cyano-3′-fluoro-biphenyl-3-yl)-amide] | > 100 µM | > 100 µM | > 100 µM | 
COc1ccc(-c2cccc(NC(=O)c3cc4cccc(O)c4oc3=O)c2)cc1C [compound 47, 8-Hydroxy-2-oxo-2H-chromene-3-carboxylic acid (4′-Methoxy-3′-methyl-biphenyl-3-yl)-amide] | > 100 µM | > 100 µM | > 100 µM | 
O=C(Nc1cccc(-c2ccc3c(c2)OCO3)c1)c1cc2cccc(O)c2oc1=O [compound 62, 8-Hydroxy-2-oxo-2H-chromene-3-carboxylic acid (3-Benzo[1,3]dioxol-5-yl-phenyl)-amide] | > 100 µM | 10 to 50 µM | > 100 µM | 

Source: US8642788B2, “Activators of executioner procaspases 3, 6 and 7” (The Regents of the University of California, priority 2008, dated 2014)
